Source: ChEMBL document CHEMBL1147037 (J Biol Chem, 2007)

Tests used:
Mu-type opioid receptor [1] = molecular target: T1, Mu-type opioid receptor (Homo sapiens, UniProt P35372); conditions: HEK293-A, at 100 µM
Mu-type opioid receptor [2] = molecular target: T1, Mu-type opioid receptor; assay: Activation of human mu opioid receptor expressed in HEK293a cells coexpressing YFP-labelled alphai1 and CFP-labelled beta-1-gamma-2 Gi subunits assessed as decrease in fluorescence resonance energy transfer signal at 10 uM relative to morphine; assay type: cell-based; conditions: HEK293-A
Mu-type opioid receptor [3] = molecular target: T1, Mu-type opioid receptor; assay: Activation of human mu opioid receptor expressed in HEK293a cells co-expressing YFP-labelled alphai1 and CFP-labelled beta1gamma2 Gi subunits assessed as Gi protein activation by fluorescence resonance energy transfer; assay type: cell-based, HEK293-A
Mu-type opioid receptor [4] = molecular target: T1, Mu-type opioid receptor; assay: Displacement of [3H]naloxone from human mu poioid receptor expressed in HEK293 cells; assay type: cell-based

T1 sequence (P35372 whole entry): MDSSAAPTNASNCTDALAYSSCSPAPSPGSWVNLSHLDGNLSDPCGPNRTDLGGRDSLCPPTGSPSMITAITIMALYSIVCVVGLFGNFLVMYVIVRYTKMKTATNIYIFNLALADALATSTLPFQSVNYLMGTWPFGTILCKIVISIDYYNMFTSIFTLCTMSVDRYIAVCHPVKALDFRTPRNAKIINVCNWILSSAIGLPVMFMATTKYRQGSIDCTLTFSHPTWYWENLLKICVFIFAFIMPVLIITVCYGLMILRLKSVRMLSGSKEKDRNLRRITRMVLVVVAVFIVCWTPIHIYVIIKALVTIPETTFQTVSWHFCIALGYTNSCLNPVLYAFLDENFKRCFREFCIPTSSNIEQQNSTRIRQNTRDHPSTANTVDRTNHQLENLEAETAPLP

Row | SMILES | Emax (Mu-type opioid receptor [1]) | Emax (Mu-type opioid receptor [2]) | EC50 (Mu-type opioid receptor [3]) | Ki (Mu-type opioid receptor [4])
1 | COC1=C[C@]23CCN(C)[C@H](Cc4ccc(OC)c(O)c42)C3=C[C@@H]1O | 17.7% | – | – | –
2 | COc1ccc(C[C@@H]2c3cc(O)c(OC)cc3CCN2C)cc1O | 15.9% | – | – | –
3 | COc1ccc2c3c1O[C@H]1C(=O)C=C[C@H]4[C@@H](C2)N(C)CC[C@]314 [CODEINONE] | – | 100% | 294 nM | 459 nM
4 | CN1CC[C@]23c4c5ccc(O)c4O[C@H]2C(=O)C=C[C@H]3[C@H]1C5 [MORPHINONE] | – | 100% | 28 nM | 146 nM
5 | COC1=CC=C2[C@H]3Cc4ccc(O)c5c4[C@@]2(CCN3C)[C@H]1O5 [ORIPAVINE] | – | 100% | 277 nM | 286 nM
6 | COC1=C[C@]23CCN(C)[C@H](Cc4ccc(OC)c(O)c42)C3=CC1=O [SALUTARIDINE] | 54.4% | – | 32500 nM | 34600 nM
7 | COC1=CC=C2[C@H]3Cc4ccc(OC)c5c4[C@@]2(CCN3C)[C@H]1O5 [THEBAINE] | 76.3% | – | 5600 nM | 7400 nM
